One compound from patent US20030143645A1, “Quinone reductase 2 and aldehyde dehydrogenase as therapeutic targets” (priority 2001, published 2003) can be followed below.

A value given as a limit tells only on which side of the number the result lay.

The target in one assay is T1, ALDH1 (Homo sapiens, UniProt P00352).
T1 construct: Purification of native ALDH1, QR2 and QR1; RBC extract was prepared as described above and applied to PQ-Sepharose; tissue Valley Biomedical (blood); host or cells: human red blood cells
T1 sequence (P00352 1-501): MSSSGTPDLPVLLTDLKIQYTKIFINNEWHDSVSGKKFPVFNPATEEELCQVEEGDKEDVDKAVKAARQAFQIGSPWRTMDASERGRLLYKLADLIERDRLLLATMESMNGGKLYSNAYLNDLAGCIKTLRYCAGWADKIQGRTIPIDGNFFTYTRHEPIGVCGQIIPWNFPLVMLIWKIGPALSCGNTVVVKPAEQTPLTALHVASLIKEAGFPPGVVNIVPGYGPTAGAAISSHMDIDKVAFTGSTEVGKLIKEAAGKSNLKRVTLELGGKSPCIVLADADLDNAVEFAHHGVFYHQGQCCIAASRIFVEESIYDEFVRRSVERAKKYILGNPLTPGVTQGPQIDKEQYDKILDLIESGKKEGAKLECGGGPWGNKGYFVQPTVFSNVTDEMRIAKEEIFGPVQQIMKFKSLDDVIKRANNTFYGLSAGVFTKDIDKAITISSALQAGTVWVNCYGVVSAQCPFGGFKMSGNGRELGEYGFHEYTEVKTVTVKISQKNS
The assay can be described thus: ALDH1 HPLC-based activity assay (Example 2). Particulars: physiological concentrations of NAD+. Format: biochemical. The procedure:
Purification of native ALDH1, QR2 and QR1. RBC extract was prepared as described above and applied to PQ-Sepharose equilibrated in buffer A. ALDH1 and QR2 were obtained by eluting the column with 5 mM b-NAD^+ and NMeH respectively. QR1 was purified from rabbit liver as previously described (Lind et al, Methods Enzymol. 186:287-301 (1990)). All enzymes were sequenced to confirm their identify and were >90% pure as judged by SDS-PAGE and silver staining.
ALDH1, QR2 and QR1 activity assays. ALDH1 activity was determined using an HPLC-based assay because of the co-absorbance of CQ and NADH at 340 nm. Reaction products were separated with a gradient of acetonitrile in 10 mM triethylamine acetic acid. CQ and NADH peaks were identified by their signature spectra using an online photodiode array detector. QR2 activity was assayed in triplicate with recombinant QR2 (at 96 ng/mL) by measuring the absorbance at 365 nm in a buffer containing 50 mM Tris-HCl, pH 8.5, 50 μM NMeH, 5-30 μM menadione, and 0.1% Triton X-100. […] QR2 K1 values were calculated using KinetAsyst II by fitting the experimental data to the equations of Cleland (Methods Enzymol. 63:103-138 (1979)). […] QR1 IC50 values were calculated using GraphPad Prism.
The quinolines inhibit ALDH1 and QR2. […] Because of the co-absorbance of NADH and CQ at 340 nm, an HPLC based assay was developed to determine the effects of CQ on ALDH1 activity.

Another assay deals with T2, QR2 (Homo sapiens, UniProt P16083).
T2 sequence (P16083 1-231): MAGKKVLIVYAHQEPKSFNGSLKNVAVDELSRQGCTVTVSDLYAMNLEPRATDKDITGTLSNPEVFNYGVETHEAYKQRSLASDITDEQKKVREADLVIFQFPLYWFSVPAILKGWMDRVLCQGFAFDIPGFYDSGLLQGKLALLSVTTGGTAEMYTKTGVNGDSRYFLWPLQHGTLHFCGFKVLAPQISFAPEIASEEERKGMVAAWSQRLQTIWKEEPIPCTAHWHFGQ
The assay can be described thus: QR2 activity assay with recombinant QR2 (Example 2). The class given is biochemical. Further details: GST (N, cleaved yes); made in house; E. coli only by inference. The conditions noted are these: recombinant QR2; 50 μM NMeH, 5-30 μM menadione; read-out: QR2 K1 (μM) ± SEM. The procedure:
Cloning of human QR2. Human QR2 was PCR amplified from human liver cDNA (Clontech) with the following primers: 5′[…]-3′ and 5′-[…]-3′ and cloned into the pGEX-4T-2 GST expression vector (Pharmacia). GST-tagged QR2 was purified and the GST tag removed according to the manufacturers instructions.
(§1) ALDH1, QR2 and QR1 activity assays. […] Reaction products were separated with a gradient of acetonitrile in 10 mM triethylamine acetic acid. […] QR1 IC50 values were calculated using GraphPad Prism.

The target in the next assay is QR1 (Oryctolagus cuniculus, UniProt U3KNP2). Kind of assay: QR1 activity assay (Example 2). Format: biochemical, rabbit. On the set-up: QR1 was purified from rabbit liver as previously described; from tissue; host or cells: rabbit liver. How it is done:
Purification of native ALDH1, QR2 and QR1. RBC extract was prepared as described above and applied to PQ-Sepharose equilibrated in buffer A. ALDH1 and QR2 were obtained by eluting the column with 5 mM b-NAD^+ and NMeH respectively.
as §1

QR1, sequence (U3KNP2 1-274): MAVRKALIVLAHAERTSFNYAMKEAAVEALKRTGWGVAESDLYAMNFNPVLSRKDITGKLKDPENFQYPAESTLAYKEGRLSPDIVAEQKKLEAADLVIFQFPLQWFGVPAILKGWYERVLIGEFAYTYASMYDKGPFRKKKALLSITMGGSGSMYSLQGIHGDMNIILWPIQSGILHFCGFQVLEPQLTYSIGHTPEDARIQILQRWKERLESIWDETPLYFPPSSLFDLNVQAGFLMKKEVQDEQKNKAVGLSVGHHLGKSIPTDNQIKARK

As usually defined, the IC50 is the concentration that gives 50% inhibition. On to `CCN(CC)CCCC(C)Nc1ccnc2cc(Cl)ccc12` (stereo not shown) [CQ, chloroquine], for which the concentration for half-maximal inhibition (IC50) against ALDH1 is 500 µM; at QR1 it was above 1000 µM. Besides, on QR2, the Ki was 0.61 ± 0.1 µM. Also, the “effect on QR1 activity” value at QR1 is reported as “not affected”.
